Results reported in patent US11446398B2, “Regulated biocircuit systems” (Obsidian Therapeutics, Inc., priority 2016, dated 2022).

B1: OT-RLuc-004: ecDHFR (R12Y, Y100I); linker (SG); Renilla Luc; SEQ ID NO 213375 (protein)
chain: MISLIAALAVDYVIGMENAMPWNLPADLAWFKRNTLNKPVIMGRHTWESIGRPLPGRKNIILSSQPGTDDRVTWVKSVDEAIAACGDVPEIMVIGGGRVIEQFLPKAQKLYLTHIDAEVEGDTHFPDYEPDDWESVFSEFHDADAQNSHSYCFEILERRSGTSKVYDPEQRKRMITGPQWWARCKQMNVLDSFINYYDSEKHAENAVIFLHGNAASSYLWRHVVPHIEPVARCIIPDLIGMGKSGKSGNGSYRLLDHYKYLTAWFELLNLPKKIIFVGHDWGACLAFHYSYEHQDKIKAIVHAESVVDVIESWDEWPDIEEDIALIKSEEGEKMVLENNFFVETMLPSKIMRKLEPEEFAAYLEPFKEKGEVRRPTLSWPREIPLVKGGKPDVVQIVRNYNAYLRASDDLPKMFIESDPGFFSNAIVEGAKKFPNTEFVKVKGLHFSQEDAPDEMGKYIKSFVERVLKNEQ
B2: OT-RLuc-006: Renilla Luc; linker (SG); ecDHFR (R12Y, Y100I); SEQ ID NO 213377 (protein)
chain: MTSKVYDPEQRKRMITGPQWWARCKQMNVLDSFINYYDSEKHAENAVIFLHGNAASSYLWRHVVPHIEPVARCIIPDLIGMGKSGKSGNGSYRLLDHYKYLTAWFELLNLPKKIIFVGHDWGACLAFHYSYEHQDKIKAIVHAESVVDVIESWDEWPDIEEDIALIKSEEGEKMVLENNFFVETMLPSKIMRKLEPEEFAAYLEPFKEKGEVRRPTLSWPREIPLVKGGKPDVVQIVRNYNAYLRASDDLPKMFIESDPGFFSNAIVEGAKKFPNTEFVKVKGLHFSQEDAPDEMGKYIKSFVERVLKNEQSGISLIAALAVDYVIGMENAMPWNLPADLAWFKRNTLNKPVIMGRHTWESIGRPLPGRKNIILSSQPGTDDRVTWVKSVDEAIAACGDVPEIMVIGGGRVIEQFLPKAQKLYLTHIDAEVEGDTHFPDYEPDDWESVFSEFHDADAQNSHSYCFEILERR
B3: OT-RLuc-005: Renilla Luc; linker (SG); FKBP (E31G, F36V, R71G, K105E); SEQ ID NO 213376 (protein)
chain: MTSKVYDPEQRKRMITGPQWWARCKQMNVLDSFINYYDSEKHAENAVIFLHGNAASSYLWRHVVPHIEPVARCIIPDLIGMGKSGKSGNGSYRLLDHYKYLTAWFELLNLPKKIIFVGHDWGACLAFHYSYEHQDKIKAIVHAESVVDVIESWDEWPDIEEDIALIKSEEGEKMVLENNFFVETMLPSKIMRKLEPEEFAAYLEPFKEKGEVRRPTLSWPREIPLVKGGKPDVVQIVRNYNAYLRASDDLPKMFIESDPGFFSNAIVEGAKKFPNTEFVKVKGLHFSQEDAPDEMGKYIKSFVERVLKNEQSGGVQVETISPGDGRTFPKRGQTCVVHYTGMLGDGKKVDSSRDRNKPFKFMLGKQEVIRGWEEGVAQMSVGQGAKLTISPDYAYGATGHPGIIPPHATLVFDVELLELE
B4: OT-RLuc-001: Renilla Luc (constitutive); SEQ ID NO 213372 (protein)
chain: MTSKVYDPEQRKRMITGPQWWARCKQMNVLDSFINYYDSEKHAENAVIFLHGNAASSYLWRHVVPHIEPVARCIIPDLIGMGKSGKSGNGSYRLLDHYKYLTAWFELLNLPKKIIFVGHDWGACLAFHYSYEHQDKIKAIVHAESVVDVIESWDEWPDIEEDIALIKSEEGEKMVLENNFFVETMLPSKIMRKLEPEEFAAYLEPFKEKGEVRRPTLSWPREIPLVKGGKPDVVQIVRNYNAYLRASDDLPKMFIESDPGFFSNAIVEGAKKFPNTEFVKVKGLHFSQEDAPDEMGKYIKSFVERVLKNEQ

Legend:
HCT-116 cells [1] = assay: Luciferase expression by western blotting; format: cell-based; conditions: HCT-116 stably transduced; 1 μM Shield-1 or 10 μM Trimethoprim or vehicle, 24 hours; FIG. 22A
Description: DD regulated luciferase can be used to track cells in vivo e.g. T cells. Firefly luciferase or Renilla luciferase may be utilized as the payload. HCT-116 cells were stably transduced with the constitutive (OT-RLuc-001) or DD regulated constructs (OT-RLuc-002, OT-RLuc-003, OT-RLuc-004, OT-RLuc-005 and OT-RLuc-006). Cells were treated with 1 μM Shield-1, or 10 μM Trimethoprim or vehicle control for 24 hours and luciferase expression and activity was measured. Luciferase expression was measured via western blotting using Anti-Renilla luciferase and anti-Firefly luciferase antibodies (Abcam, Cambridge, UK). Blots were also probed with anti-GAPDH antibody to ensure even protein loading in all samples.

HEK-Blue sensor cells = assay: HEK-Blue sensor cell assay for functional IL12 (Quanti-Blue); format: cell-based; conditions: HEK 293T transfected with 200 ng plasmid, 10 μM Shield-1 24 hours; media on HEK Blue sensor cells; FIG. 21A
Description: HEK-Blue sensor cells (InvivoGen, San Diego, Calif.) were utilized to evaluate whether DD regulated IL12 is capable of regulating signaling downstream of IL12. In these cells, the IL12 receptor, STAT4 and downstream transcriptional elements are tied to a reporter gene such that IL12 signaling can be monitored. To evaluate production of functional IL12, one million HEK 293T were transfected with 200 ng of OT-IL-12-003 plasmid using Lipofectamine 2000 (Thermo Fisher Scientific, Waltham, Mass.). 48 hours after transfection, cells were treated with growth media containing 10 μM Shield-1, incubated for another 24 hours, following which, media was collected. […] After overnight incubation, 20 μl media was removed from each well and incubated with 180 μl Quanti-Blue reagent (InvivoGen, San Diego, Calif.) for 30 minutes at 37° C. Absorption was measured at 620 nm using a spectrophotometer. […] Functional IL12 concentrations were determined by comparing the optical density of each sample with IL12 standard curve.
The dependence of functional IL12 production on the dose of Shield-1 used was also evaluated. […] Absorption was measured at 620 nm using a spectrophotometer. […] Functional IL12 concentrations were determined by comparing the optical density of each sample with IL12 standard curve.

HEK293T cells = assay: IL12-p40 ELISA, Shield-1 dose and cell number dependent IL12 induction; format: cell-based, human; conditions: OT-IL12-004 transduced HEK293T cells, 24 hours
Description: Following overnight incubation, cells were treated with growth medium containing 0 to 10 μM Shield-1 for 24 hours. Media was then collected, diluted 400 fold and FKBP-IL12 levels were measured using IL12-p40 ELISA.

HCT116 cells = assay: IL2 ELISA, dependence of DD-IL2 levels on Shield-1 dose; format: cell-based; conditions: 96-well plate, varying concentrations of Shield-1, DD-IL2 construct, read-out: ECK of Shield-1 (IL2 levels by IL2 ELISA)
Source text: FKBP (L106P) and ecDHFR (R12Y, Y100I) are well-characterized destabilizing domains which can confer instability to fusion partners (e.g., a POI). The instability is reversed by a synthetic ligand named Shield-1 that binds to FKBP; TMP that binds to DHFR. An IL2 polypeptide was linked to either FKBP (L106P) or ecDHFR (R12Y, Y100I). IL2 constructs were cloned into pLVX-IRES-Puro lentiviral vectors. An IL2 signal sequence was inserted at the N terminus of the construct.
To evaluate dependence of IL2 levels on Shield-1 dose, HCT116 cells were plated onto a 96-well plate and treated with varying concentrations of Shield-1. Media was then collected from cells and IL2 levels were quantified using IL2 ELISA (FIG. 20). IL2 increased with increase in Shield-1 concentration and plateaued at higher Shield-1 dose levels. The ECK of Shield-1 was determined to be 50 nM

HCT-116 cells [2] = assay: Luciferase activity, luminescence reading; format: cell-based; conditions: 1 μM Shield-1 or 10 μM Trimethoprim or vehicle, 24 hours; coelentrazine or luciferin substrate; FIG. 22B
Description: Ligand dependent activity of Renilla and firefly luciferase constructs was also measured in using coelentrazine and luciferin substrates respectively. Cells were treated with 1 μM Shield-1, or 10 μM Trimethoprim or vehicle control for 24 hours, lysed with assay lysis buffer and incubated with the luciferase substrate. Luciferase activity was measured as luminescence reading using a luminometer and the values were compared to control comprising of lysis buffer and substrate.

| Molecule | Luciferase expression, ligand dependent stabilization (western blotting) (HCT-116 cells [1]) | other results |
| --- | --- | --- |
| OT-RLuc-003: FKBP (F36V, 106P); linker (SG); Renilla Luc; SEQ ID NO 213374 | strong Shield-1 dependent stabilization | – |
| OT-FLuc-002: FKBP (F36V, 106P); linker (EF); Fluc; SEQ ID NO 213373 | modest stabilization | – |
| OT-IL12-003: p40 signal sequence; FKBP (F36V, L106P); furin (SARNRQKRS); p40; linker ((G4S)3); p35; SEQ ID NO 213301 | – | Media dilution at which measurable levels of functional IL12 were reached (HEK-Blue sensor cells): 640 fold |
| CC[C@H](C(=O)N1CCCC[C@H]1C(=O)O[C@H](CCc1ccc(OC)c(OC)c1)c1cccc(OCCN2CCOCC2)c1)c1cc(OC)c(OC)c(OC)c1 [Shield-1] | – | Shield-1 dose up to which IL12 induction increased, then plateaued (HEK293T cells): 1 µM; EC50 (HCT116 cells): 50 nM |
| B1 | modest stabilization | – |
| B2 | modest stabilization | – |
| B3 | modest stabilization | – |
| B4 | expression of Renilla luciferase both in the presence and absence of ligand | Luciferase activity (luminescence reading) (HCT-116 cells [2]): high luciferase activity both in the presence and absence of ligand |
